Where two headings read alike, the source gives them in different places.
Columns and labels:
[1] = biological target: CDK9-CYCLIN T1 (Homo sapiens, UniProt P50750); assay: CDK protein kinase inhibition by ADP-Glo assay, CDK9-CYCLIN T1; type: biochemical; settings: for IC50: recombinant CDK kinase, read-out: CDK9-CYCLINT1, IC50; for CDK2 Fold selectivity against CDK9: fold selectivity for CDK2 over CDK9, recombinant CDK kinases
Experimental: (§1) CDK Protein Kinase Inhibition by ADP-Glo Assay
(§2) This ADP-Glo assay measures ADP formed from a kinase reaction and indirectly quantifies the phosphorylation of peptide substrates by the CDK/cyclin protein complexes. The typical assays were carried out in Nanosyn by combining kinase/cyclin complexes, substrates, compounds, and cofactors (ATP and Mg2+) in a well of a 384-well microtiter plate (Corning 3824) and incubating at 22° C. (Table 1). At the end of the incubation, the reaction is quenched, and conversion is detected by luminescence using the Promega ADP-Glo™ Kinase Assay kit (catalog #V9102).
(§3) Final assay buffer mixture contains: • 100 mM HEPES, pH 7.5 • 0.1% BSA • 0.01% Triton X-100 • 1 mM DTT • 5 mM MgCl2 • 10 μM Sodium Orthovanadate • 100 μM Beta-Glycerophosphate • 1000 μM Ultra Pure ATP (provided in the Promega ADP-Glo™ Kinase Assay kit) • 1% DMSO (from compound)
(§4) Upon completion, 5 μL of the ADP Glo reagent was added to each well and the plate was further incubated at room temperature for 45 minutes. 10 uL of the Kinase Detection Reagent was subsequently added to each well. After 10 minutes of incubation, the plate was read and analyzed on the BioTek Synergy microplate reader using BioTek Gen5 software.

[2] = system: CCNE1-amplified OVCAR3 cells; assay: Cell growth inhibition of CCNE1-amplified OVCAR3 cells (CellTiter-Glo); type: cell-based; settings: Homo sapiens, OVCAR-3, 144 h, 6 days
In short: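 Growth read-out was CellTiter-Glo luminescence, taken after 10 min at room temperature at the end of a 6-day compound exposure at 37 °C. Compounds were diluted from DMSO stocks across various concentrations.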

[3] = biological target: CDK6-CYCLIN D3 (Homo sapiens, UniProt Q00534); assay: CDK protein kinase inhibition by ADP-Glo assay, CDK6-CYCLIN D3; type: biochemical; settings: for IC50: recombinant CDK kinase, read-out: CDK6-CYCLIND3, IC50; for CDK2 Fold selectivity against CDK6: fold selectivity for CDK2 over CDK6, recombinant CDK kinases
Chain of CDK6-CYCLIN D3 (Q00534 whole entry): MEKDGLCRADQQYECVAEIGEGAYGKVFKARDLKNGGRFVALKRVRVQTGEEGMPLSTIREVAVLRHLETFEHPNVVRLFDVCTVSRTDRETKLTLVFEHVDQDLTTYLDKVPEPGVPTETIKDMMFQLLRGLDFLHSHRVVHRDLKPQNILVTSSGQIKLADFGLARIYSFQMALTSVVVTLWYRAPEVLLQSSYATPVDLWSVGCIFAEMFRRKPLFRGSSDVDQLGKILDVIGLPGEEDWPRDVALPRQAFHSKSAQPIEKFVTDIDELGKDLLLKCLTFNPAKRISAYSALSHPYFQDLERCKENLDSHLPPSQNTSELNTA
Chain of CDK6-CYCLIN D3 (P30281 whole entry partner): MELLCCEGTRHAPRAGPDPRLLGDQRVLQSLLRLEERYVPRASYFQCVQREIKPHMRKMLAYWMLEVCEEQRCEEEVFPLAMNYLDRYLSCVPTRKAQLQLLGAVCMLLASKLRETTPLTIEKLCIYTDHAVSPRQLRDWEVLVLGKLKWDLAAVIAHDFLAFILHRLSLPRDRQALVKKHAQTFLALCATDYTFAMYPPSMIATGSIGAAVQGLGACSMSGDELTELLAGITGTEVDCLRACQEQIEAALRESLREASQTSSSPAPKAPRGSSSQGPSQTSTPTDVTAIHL
Experimental: as §1, §2, §3, §4

[4] = system: Phospho-Rb (Ser807/811) in OVCAR3 cells; assay: Phospho-Rb expression inhibition in OVCAR3 cells quantified by In Cell Western; type: cell-based; settings: Homo sapiens, OVCAR-3, 24 hours, read-out: OVCAR-3 pRb IC50
In short: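 In-cell western: after 24 h compound exposure at 37° C, fixed OVCAR3 cells co-stained for pRb Ser807/811 (800 nm channel) and total Rb (680 nm channel), imaged by LI-COR Odyssey.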

[5] = biological target: CDK1-CYCLIN B (Homo sapiens, UniProt P06493); assay: CDK protein kinase inhibition by ADP-Glo assay, CDK1-CYCLIN B; type: biochemical; settings: for IC50: recombinant CDK kinase, read-out: CDK1-CYCLINB, IC50; for CDK2 Fold selectivity against CDK1: fold selectivity for CDK2 over CDK1, recombinant CDK kinases
Chain of CDK1-CYCLIN B (P06493 whole entry): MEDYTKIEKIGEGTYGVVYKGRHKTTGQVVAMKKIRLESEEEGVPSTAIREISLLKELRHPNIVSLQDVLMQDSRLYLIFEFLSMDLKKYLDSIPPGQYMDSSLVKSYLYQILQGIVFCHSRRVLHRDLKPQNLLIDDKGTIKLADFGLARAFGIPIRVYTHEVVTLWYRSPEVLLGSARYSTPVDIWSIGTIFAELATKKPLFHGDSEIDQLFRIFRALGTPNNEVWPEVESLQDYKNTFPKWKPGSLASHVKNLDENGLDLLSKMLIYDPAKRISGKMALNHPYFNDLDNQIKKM
Chain of CDK1-CYCLIN B (P14635 whole entry partner): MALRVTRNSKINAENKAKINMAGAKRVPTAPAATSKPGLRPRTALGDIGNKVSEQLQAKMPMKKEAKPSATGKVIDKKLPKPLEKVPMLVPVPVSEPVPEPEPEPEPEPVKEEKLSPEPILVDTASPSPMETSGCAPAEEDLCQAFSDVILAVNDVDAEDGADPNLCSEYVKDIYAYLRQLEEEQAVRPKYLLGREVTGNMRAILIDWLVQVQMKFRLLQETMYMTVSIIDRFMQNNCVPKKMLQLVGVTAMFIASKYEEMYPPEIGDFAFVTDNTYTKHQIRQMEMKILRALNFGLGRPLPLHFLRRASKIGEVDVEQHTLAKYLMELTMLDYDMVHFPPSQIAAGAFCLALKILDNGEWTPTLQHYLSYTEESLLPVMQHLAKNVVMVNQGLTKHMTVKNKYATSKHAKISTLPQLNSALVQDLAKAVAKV
Experimental: as §1, §2, §3, §4

[6] = biological target: CDK2-CYCLIN E1 (Homo sapiens, UniProt P24941); assay: CDK protein kinase inhibition by ADP-Glo assay, CDK2-CYCLIN E1; type: biochemical; settings: recombinant CDK kinase, read-out: CDK2-CYCLINE, IC50
Experimental: as §1, §2, §3, §4

[7] = biological target: CDK4-CYCLIN D1 (Homo sapiens, UniProt P11802); assay: CDK protein kinase inhibition by ADP-Glo assay, CDK4-CYCLIN D1; type: biochemical; settings: for IC50: recombinant CDK kinase, read-out: CDK4-CYCLIND1, IC50; for CDK2 Fold selectivity against CDK4: fold selectivity for CDK2 over CDK4, recombinant CDK kinases
Chain of CDK4-CYCLIN D1 (P11802 whole entry): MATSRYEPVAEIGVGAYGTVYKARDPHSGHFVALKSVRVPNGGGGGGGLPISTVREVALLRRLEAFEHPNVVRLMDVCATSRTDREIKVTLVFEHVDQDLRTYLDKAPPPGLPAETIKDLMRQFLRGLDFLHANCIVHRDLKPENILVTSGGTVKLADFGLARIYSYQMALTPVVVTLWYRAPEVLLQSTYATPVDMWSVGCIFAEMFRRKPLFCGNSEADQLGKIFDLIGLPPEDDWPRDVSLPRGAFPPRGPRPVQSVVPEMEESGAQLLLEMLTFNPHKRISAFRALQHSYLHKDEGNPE
Chain of CDK4-CYCLIN D1 (P24385 whole entry partner): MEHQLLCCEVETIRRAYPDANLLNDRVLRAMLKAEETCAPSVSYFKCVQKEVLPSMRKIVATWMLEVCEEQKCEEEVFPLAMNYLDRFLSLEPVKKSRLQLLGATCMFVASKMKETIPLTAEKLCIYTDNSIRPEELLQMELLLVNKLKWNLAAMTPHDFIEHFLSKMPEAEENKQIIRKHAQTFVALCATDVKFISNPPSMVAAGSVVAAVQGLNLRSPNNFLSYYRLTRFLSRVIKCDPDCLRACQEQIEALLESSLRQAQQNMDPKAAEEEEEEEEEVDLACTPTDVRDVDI
Experimental: as §1, §2, §3, §4

[8] = system: CCNE1-normal SKOV3 cells; assay: Cell growth inhibition of CCNE1-normal SKOV3 cells (CellTiter-Glo); type: cell-based; settings: Homo sapiens, SK-OV-3, 144 h, 6 days
Experimental: Cell Growth Inhibition of CCNE1-Normal SKOV3 Cells
SKOV3 cells were obtained from American Type Culture Collection (ATCC, HTB-77). SKOV3 cells were seeded in 96-well plates at 1000 cells/well in 90 μl of RPM11640 growth medium containing 10% FBS and 1% Penicillin Streptomycin, and then incubated at 37° C. overnight. The following day, the test compound was administered to the cells by using 1000× compound stock solution prepared in DMSO at various concentrations. 1000× compound stock solution was first diluted in culturing medium to 10x, then 10 uL compound medium was added to each well in the cell plates. After administration of the compound, the cells were then incubated at 37° C. for 6 days. Upon completion, the plates were equilibrated at room temperature for approximately 10 minutes. 100 ul of CellTiter-Glo® Reagent (Promega) was added to each well. The plates were then incubated at room temperature for 10 minutes and luminescence was recorded by EnSpire plate reader (PerkinElmer).

Chain of CDK9-CYCLIN T1 (P50750 whole entry): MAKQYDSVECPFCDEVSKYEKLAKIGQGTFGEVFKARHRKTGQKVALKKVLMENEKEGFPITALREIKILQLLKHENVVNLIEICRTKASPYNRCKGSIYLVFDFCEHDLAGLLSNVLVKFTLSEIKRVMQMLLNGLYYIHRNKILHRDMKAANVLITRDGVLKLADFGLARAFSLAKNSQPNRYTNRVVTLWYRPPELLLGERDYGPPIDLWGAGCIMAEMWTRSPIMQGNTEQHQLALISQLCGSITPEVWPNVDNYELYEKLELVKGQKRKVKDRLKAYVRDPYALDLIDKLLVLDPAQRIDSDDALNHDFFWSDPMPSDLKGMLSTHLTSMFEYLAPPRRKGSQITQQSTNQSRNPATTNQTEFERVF
Chain of CDK9-CYCLIN T1 (O60563 whole entry partner): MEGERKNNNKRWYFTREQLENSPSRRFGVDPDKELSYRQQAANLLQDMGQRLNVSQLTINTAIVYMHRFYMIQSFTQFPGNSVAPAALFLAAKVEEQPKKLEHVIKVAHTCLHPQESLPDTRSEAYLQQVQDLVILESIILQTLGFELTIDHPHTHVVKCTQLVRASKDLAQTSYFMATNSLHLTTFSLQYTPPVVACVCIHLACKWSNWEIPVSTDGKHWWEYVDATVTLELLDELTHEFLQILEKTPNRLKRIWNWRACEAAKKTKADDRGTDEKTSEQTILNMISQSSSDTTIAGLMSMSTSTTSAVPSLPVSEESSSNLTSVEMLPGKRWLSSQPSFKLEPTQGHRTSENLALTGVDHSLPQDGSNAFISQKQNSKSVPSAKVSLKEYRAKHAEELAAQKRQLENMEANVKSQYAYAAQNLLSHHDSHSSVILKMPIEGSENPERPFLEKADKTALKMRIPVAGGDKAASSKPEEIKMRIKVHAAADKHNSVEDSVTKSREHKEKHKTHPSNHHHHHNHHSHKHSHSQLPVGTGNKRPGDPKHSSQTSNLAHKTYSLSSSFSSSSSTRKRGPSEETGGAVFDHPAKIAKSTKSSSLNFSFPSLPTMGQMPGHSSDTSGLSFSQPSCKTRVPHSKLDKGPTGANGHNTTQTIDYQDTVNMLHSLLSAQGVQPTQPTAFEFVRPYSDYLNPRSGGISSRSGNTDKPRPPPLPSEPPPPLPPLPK

| SMILES | IC50 ([1]; Table 37) [nM] | CDK2 Fold selectivity against CDK9 ([1]; Table 38) | IC50 [2] [nM] | IC50 ([3]; Table 37) [nM] | CDK2 Fold selectivity against CDK6 ([3]; Table 38) | IC50 [4] [nM] | IC50 ([5]; Table 37) [nM] | CDK2 Fold selectivity against CDK1 ([5]; Table 38) | IC50 ([6]; Table 37) [nM] | IC50 ([7]; Table 37) [nM] | CDK2 Fold selectivity against CDK4 ([7]; Table 38) | IC50 [8] [nM] | also measured |
| --- | --- | --- | --- | --- | --- | --- | --- | --- | --- | --- | --- | --- | --- |
| [2H]C1([2H])Oc2cc(ccn2)Nc2[nH]nc(c2F)[C@H]2CC[C@H](C2)OC(=O)N[C@H]2C[C@H]1C2 [Compound 221, (1^1S,1^3R,7^1R,7^3S,E)-24-fluoro-2^1H-5,10-dioxa-3,8-diaza-4(4,2)-pyridina-2(3,5)-pyrazola-1(1,3)-cyclopentana-7(1,3)-cyclobutanacyclodecaphan-9-one-6,6-d2] |  |  | 10 to 50 |  |  | 10 to 50 |  |  |  |  |  |  | IC50 ([1]; Table 35): > 500 nM; CDK2 Fold selectivity against CDK9 ([1]; Table 36): B (B, >100 and ≤500); IC50 ([3]; Table 35): 100 to 500 nM; CDK2 Fold selectivity against CDK6 ([3]; Table 36): C (C, >50 and ≤100); IC50 ([5]; Table 35): 50 to 100 nM; CDK2 Fold selectivity against CDK1 ([5]; Table 36): E (E, <20); IC50 ([6]; Table 35): ≤ 10 nM; IC50 ([7]; Table 35): 100 to 500 nM; CDK2 Fold selectivity against CDK4 ([7]; Table 36): C (C, >50 and ≤100) |
| O=C1NC2CC(COc3cc(ccn3)Nc3[nH]nc(c3F)C3C[C@@H](F)[C@H](C3)O1)C2 [Compound 231, (1^1R,1^3S,1^4R,7^1S,7^3R,E)-1^4,2^4-difluoro-2^1H-5,10-dioxa-3,8-diaza-4(4,2)-pyridina-2(3,5)-pyrazola-1(1,3)-cyclopentana-7(1,3)-cyclobutanacyclodecaphan-9-one] | > 500 | B (B, >100 and ≤500) | 10 to 50 | 100 to 500 | B (B, >100 and ≤500) | 10 to 50 | 50 to 100 | E (E, <20) | ≤ 10 | 100 to 500 | B (B, >100 and ≤500) |  |  |
| O=C1NC2CC(COc3cc(ccn3)Nc3[nH]nc(c3F)C3C[C@H](F)[C@@H](C3)O1)C2 [Compound 232, (1^1S,1^3R,1^4S,7^1R,7^3S,E)-1^4,2^4-difluoro-2^1H-5,10-dioxa-3,8-diaza-4(4,2)-pyridina-2(3,5)-pyrazola-1(1,3)-cyclopentana-7(1,3)-cyclobutanacyclodecaphan-9-one] | 100 to 500 | E (E, <20) | 50 to 250 | 100 to 500 | E (E, <20) | 10 to 50 | 100 to 500 | E (E, <20) | 10 to 50 | 50 to 100 | E (E, <20) |  |  |
| O=C1NC2(CCCCc3cncc(c3)Nc3cc(n[nH]3)[C@H]3CC[C@H](C3)O1)CC2 [Compound 142, (1′S,3′R,Z)-spiro[cyclopropane-1,9′-12-oxa-3,10-diaza-4(3,5)-pyridina-2(3,5)-pyrazola-1(1,3)-cyclopentanacyclododecaphan]-11′-one] |  |  | 10 to 50 |  |  | 2 to 10 |  |  |  |  |  | 250 to 1250 |  |
| O=C1NC2CC(C2)CC(F)(F)c2cc(ccn2)Nc2cc(n[nH]2)[C@H]2CC[C@H](C2)O1 (single isomer, unassigned) [Compound 169, (1^1S,1^3R,7^1R,7^3S,Z)-5,5-difluoro-2^1H-10-oxa-3,8-diaza-4(4,2)-pyridina-2(3,5)-pyrazola-1(1,3)-cyclopentana-7(1,3)-cyclobutanacyclodecaphan-9-one] |  |  | 50 to 250 |  |  | 10 to 50 |  |  |  |  |  | > 1250 |  |
| C[C@@H]1/C=C/COc2cc(ccn2)Nc2cc(n[nH]2)[C@H]2CC[C@H](C2)OC(=O)N1 [Compound 138, (1^1S,1^3R,2^4Z,7E,9R)-9-methyl-2^1H-5,12-dioxa-3,10-diaza-4(4,2)-pyridina-2(3,5)-pyrazola-1(1,3)-cyclopentanacyclododecaphan-7-en-11-one] |  |  | 50 to 250 |  |  | 10 to 50 |  |  |  |  |  | > 1250 |  |
| C[C@@H]1C/C=C\C(F)(F)c2cc(ccn2)Nc2cc(n[nH]2)[C@H]2CC[C@H](C2)OC(=O)N1 [Compound 168, (1^1S,1^3R,2^4Z,9R)-5,5-difluoro-9-methyl-2^1H-12-oxa-3,10-diaza-4(4,2)-pyridina-2(3,5)-pyrazola-1(1,3)-cyclopentanacyclododecaphan-6-en-11-one] |  |  | 50 to 250 |  |  | 10 to 50 |  |  |  |  |  | > 1250 |  |
| C[C@@H]1OCCCNC(=O)O[C@@H]2CC[C@@H](C2)c2cc([nH]n2)Nc2ccnc1c2 [compound 72] |  |  | > 250 |  |  | 10 to 50 |  |  |  |  |  | > 1250 |  |

Continued, in another order:

| IC50 ([1]; Table 37) [nM] | CDK2 Fold selectivity against CDK9 ([1]; Table 38) | IC50 [2] [nM] | IC50 ([3]; Table 37) [nM] | CDK2 Fold selectivity against CDK6 ([3]; Table 38) | IC50 [4] [nM] | IC50 ([5]; Table 37) [nM] | CDK2 Fold selectivity against CDK1 ([5]; Table 38) | IC50 ([6]; Table 37) [nM] | IC50 ([7]; Table 37) [nM] | CDK2 Fold selectivity against CDK4 ([7]; Table 38) | SMILES | IC50 [8] [nM] | also measured |
| --- | --- | --- | --- | --- | --- | --- | --- | --- | --- | --- | --- | --- | --- |
| 10 to 50 | E (E, <20) | 10 to 50 | 10 to 50 | E (E, <20) | 10 to 50 | 10 to 50 | E (E, <20) | ≤ 10 | 10 to 50 | E (E, <20) | O=C1NC2CC(COc3cc(ccn3)Nc3cc(n[nH]3)C3C[C@H](F)[C@@H](C3)O1)C2 [Compound 230, (1^1S,1^3R,1^4S,7^1R,7^3S,Z)-1^4-fluoro-2^1H-5,10-dioxa-3,8-diaza-4(4,2)-pyridina-2(3,5)-pyrazola-1(1,3)-cyclopentana-7(1,3)-cyclobutanacyclodecaphan-9-one] |  |  |
| 100 to 500 | C (C, >50 and ≤100) | 10 to 50 | 10 to 50 | E (E, <20) | 2 to 10 | 10 to 50 | E (E, <20) | ≤ 10 | 10 to 50 | E (E, <20) | O=C1NC2CC(COc3cc(ccn3)Nc3cc(n[nH]3)C3C[C@@H](F)[C@H](C3)O1)C2 [Compound 229, (1^1R,1^3S,1^4R,7^1S,7^3R,Z)-1^4-fluoro-2^1H-5,10-dioxa-3,8-diaza-4(4,2)-pyridina-2(3,5)-pyrazola-1(1,3)-cyclopentana-7(1,3)-cyclobutanacyclodecaphan-9-one] |  |  |
|  |  | 2 to 10 |  |  | ≤ 2 |  |  |  |  |  | O=C1NC2CC(COc3cncc(c3)Nc3cc(n[nH]3)[C@H]3CC[C@H](C3)O1)C2 [Compound 171, (1^1S,1^3R,7^1R,7^3S,Z)-2^1H-5,10-dioxa-3,8-diaza-4(3,5)-pyridina-2(3,5)-pyrazola-1(1,3)-cyclopentana-7(1,3)-cyclobutanacyclodecaphan-9-one] | 250 to 1250 |  |
|  |  | ≤ 2 |  |  | ≤ 2 |  |  |  |  |  | O=C1NC23CC(CCCc4cncc(c4)Nc4cc(n[nH]4)[C@H]4CC[C@H](C4)O1)(C2)C3 [Compound 118, (1^1S,1^3R,Z)-2^1H-11-oxa-3,9-diaza-4(3,5)-pyridina-2(3,5)-pyrazola-8(1,3)-bicyclo[1.1.1]pentana-1(1,3)-cyclopentanacycloundecaphan-10-one] | 10 to 50 |  |

— US20240317777A1, “NOVEL MACROCYCLIC AMINOPYRAZOLE COMPOUNDS AS CDK2 INHIBITORS” (Accutar Biotechnology Inc., priority 2023, published 2024)
